Results published in patent US6677310B1, “Ring-expanded nucleosides and nucleotides” (Nabi, priority 1999, dated 2004).

Tests used:
Type in all cases: cell-based, human
CCRF-CEM = assay: SRB anti-cancer assay, Leukemia; details: 48 h
RPMI-8226 = assay: SRB anti-cancer assay, Leukemia; details: RPMI-8226 (Leukemia), 48 h
SR = assay: SRB anti-cancer assay, Leukemia; details: 48 h
EKVX = EKVX (Non-Small Cell Lung Cancer), 48 h
HOP-62 = HOP-62 (Non-Small Cell Lung Cancer), 48 h
NCI-H226 = NCI-H226 (Non-Small Cell Lung Cancer), 48 h
NCI-H23 = NCI-H23 (Non-Small Cell Lung Cancer), 48 h
COLO 205 = assay: SRB anti-cancer assay, Colon Cancer; details: COLO 205 (Colon Cancer), 48 h
HCC-2998 = assay: SRB anti-cancer assay, Colon Cancer; details: HCC-2998 (Colon Cancer), 48 h
HCT-116 = assay: SRB anti-cancer assay, Colon Cancer; details: HCT-116 (Colon Cancer), 48 h
HCT-15 = assay: SRB anti-cancer assay, Colon Cancer; details: HCT-15 (Colon Cancer), 48 h
SW-620 = assay: SRB anti-cancer assay, Colon Cancer; details: SW-620 (Colon Cancer), 48 h
SF-295 = assay: SRB anti-cancer assay, CNS Cancer; details: SF-295 (CNS Cancer), 48 h
SNB-19 = assay: SRB anti-cancer assay, CNS Cancer; details: SNB-19 (CNS Cancer), 48 h
SNB-75 = assay: SRB anti-cancer assay, CNS Cancer; details: SNB-75 (CNS Cancer), 48 h
MALME-3M = assay: SRB anti-cancer assay, Melanoma; details: MALME-3M (Melanoma), 48 h
SK-MEL-28 = assay: SRB anti-cancer assay, Melanoma; details: SK-MEL-28 (Melanoma), 48 h
UACC-257 = assay: SRB anti-cancer assay, Melanoma; details: UACC-257 (Melanoma), 48 h
OVCAR-3 = assay: SRB anti-cancer assay, Ovarian Cancer; details: OVCAR-3 (Ovarian Cancer), 48 h
OVCAR-4 = assay: SRB anti-cancer assay, Ovarian Cancer; details: OVCAR-4 (Ovarian Cancer), 48 h
OVCAR-5 = assay: SRB anti-cancer assay, Ovarian Cancer; details: OVCAR-5 (Ovarian Cancer), 48 h
OVCAR-8 = assay: SRB anti-cancer assay, Ovarian Cancer; details: OVCAR-8 (Ovarian Cancer), 48 h
786-0 = assay: SRB anti-cancer assay, Renal Cancer; details: 786-0 (Renal Cancer), 48 h
A498 = assay: SRB anti-cancer assay, Renal Cancer; details: 48 h
ACHN = assay: SRB anti-cancer assay, Renal Cancer; details: 48 h
CAKI-1 = assay: SRB anti-cancer assay, Renal Cancer; details: CAKI-1 (Renal Cancer), 48 h
SN12C = assay: SRB anti-cancer assay, Renal Cancer; details: 48 h
UO-31 = assay: SRB anti-cancer assay, Renal Cancer; details: UO-31 (Renal Cancer), 48 h
MDA-N = assay: SRB anti-cancer assay, Breast Cancer; details: 48 h
[1] = read-out: LC50 (the source's name)

## N=c1[nH]c(=O)c2ncn([C@@H]3O[C@H](CO)[C@@H](O)[C@H]3O)c2c(=O)[nH]1 [Compound 14-1, 6-Imino-6H-1-β-D-ribofuranosyl-4,5,7,8-tetrahydroimidazo[4,5-e][1,3]diazepine-4,8-dione]
CCRF-CEM
  GI50: > 100 µM
  TGI: >100 µM
CCRF-CEM; [1]
  CC50: > 100 µM
RPMI-8226
  GI50: > 100 µM
  TGI: >100 µM
RPMI-8226; [1]
  CC50: > 100 µM
SR
  GI50: > 100 µM
  LC50 (concentration killing 50% of cells): > 100 µM
  TGI: >100 µM
EKVX
  GI50: > 100 µM
  TGI: >100 µM
EKVX; [1]
  CC50: > 100 µM
HOP-62
  GI50: > 100 µM
  LC50 (concentration for 50% net cell kill): > 100 µM
  TGI: >100 µM
NCI-H226
  GI50: > 100 µM
  TGI: >100 µM
NCI-H226; [1]
  CC50: > 100 µM
NCI-H23
  GI50: > 100 µM
  TGI: >100 µM
NCI-H23; [1]
  CC50: > 100 µM
COLO 205
  GI50: > 100 µM
  LC50: > 100 µM
  TGI: >100 µM
HCC-2998
  GI50: > 100 µM
  TGI: >100 µM
HCC-2998; [1]
  CC50: > 100 µM
HCT-116
  GI50: > 100 µM
  TGI: >100 µM
HCT-116; [1]
  CC50: > 100 µM
HCT-15
  GI50: > 100 µM
  TGI: >100 µM
HCT-15; [1]
  CC50: > 100 µM
SW-620
  GI50: > 100 µM
  TGI: >100 µM
SW-620; [1]
  CC50: > 100 µM
SF-295
  GI50: > 100 µM
  TGI: >100 µM
SF-295; [1]
  CC50: > 100 µM
SNB-19
  GI50: > 100 µM
  TGI: >100 µM
SNB-19; [1]
  CC50: > 100 µM
SNB-75
  LC50 (concentration killing 50% of cells): > 100 µM
  TGI: >100 µM
MALME-3M
  GI50: > 100 µM
  LC50: > 100 µM
  TGI: >100 µM
SK-MEL-28
  GI50: > 100 µM
  LC50: > 100 µM
  TGI: >100 µM
UACC-257
  GI50: > 100 µM
  TGI: >100 µM
UACC-257; [1]
  CC50: > 100 µM
OVCAR-3
  GI50: > 100 µM
  TGI: >100 µM
OVCAR-3; [1]
  CC50: > 100 µM
OVCAR-4
  GI50: > 100 µM
  TGI: >100 µM
OVCAR-4; [1]
  CC50: > 100 µM
OVCAR-5
  GI50: > 100 µM
  TGI: >100 µM
OVCAR-5; [1]
  CC50: > 100 µM
OVCAR-8
  GI50: > 100 µM
  LC50 (50% lethal concentration): > 100 µM
  TGI: >100 µM
786-0
  GI50: > 100 µM
  TGI: >100 µM
786-0; [1]
  CC50: > 100 µM
A498
  GI50: > 100 µM
  TGI: >100 µM
A498; [1]
  CC50: > 100 µM
ACHN
  GI50: > 100 µM
  TGI: >100 µM
ACHN; [1]
  CC50: > 100 µM
CAKI-1
  GI50: > 100 µM
  TGI: >100 µM
CAKI-1; [1]
  CC50: > 100 µM
SN12C
  GI50: > 100 µM
  TGI: >100 µM
SN12C; [1]
  CC50: > 100 µM
UO-31
  GI50: > 100 µM
  TGI: >100 µM
UO-31; [1]
  CC50: > 100 µM
MDA-N
  GI50: > 100 µM
  TGI: >100 µM
MDA-N; [1]
  CC50: > 100 µM
